Results as given in patent US20110158944A1, “BRAF BIOMARKERS” (priority 2007, published 2011).
Like-named read-outs stand apart in the source and are kept apart here.

Key:
Assay in all cases: Cell proliferation IC50 (Cell Titer Glo)
MB-453 = assay type: cell-based; settings: Homo sapiens, 96 h, read-out: IC50 cell proliferation
Method: (§1) IC50 Cell proliferation measurements. Cell proliferation was assessed in the 41 tumor cell lines set forth in Table 2 after 4 days of continuous exposure to either the ERK1/2 inhibitor, compound a or the MEK inhibitor compound b (PD0325901) using Promega Cell Titer Glo reagent (Promega Corp, Madison, Wis.). Promega's CellTiter-Glo™ Luminescent Cell Viability Assay is a sensitive method for assaying cell proliferation using a stable form of luciferase to measure ATP as an indicator of viable cells. This reagent allows a homogeneous method of determining cell number by quantitation of ATP. The luciferase luminescent signal produced is proportional to the number of viable cells present in culture.
(§2) A 1000× compound dose response curve, containing 8 dilutions of each compound, was prepared on a 96-well plate. Compounds were diluted in 100% DMSO to the following (1000×) concentrations: compound b: 1000 μM, 333 μM, 111 μM, 37 μM, 12 μM, 4.1 μM, 1.4 μM and 0.5 μM; compound a: 3000 μM, 1000 μM, 333 μM, 111 μM, 37 μM, 12 μM, 4.1 μM and 1.4 μM. This compound source plate was sealed and kept frozen between uses.
(§3) Cells were grown in RPMI 1640 medium supplemented with 10% Fetal Bovine Serum, 2 mM Glutamine and non-essential amino acids or DMEM/F12 Media containing the same supplements. On day zero, cells were trypsinized, counted and plated into wells of a 96-well Wallac TC Isoplate (Perkin-Elmer Wallac, Gaithersburg, Md.) at a density of 1500-2000 cells per well in 50 μl of complete media. An additional 6-8 replicate well of the cells at the same density were plated on a separate Wallac TC Isoplate. This plate was developed on day 1 to determine the cell-growth baseline.
(§4) On day 1 of treatment, compound was diluted to 2× in media and immediately added to the cells as follows: one ml of media was added to each well of a deep-well 96-well plate and 2 μl of 1000× compound was added with mixing to make 2× compound in media. 50 μl of the media containing 2× compound was added to the cell plates in duplicate points so the final concentrations for each well were as outlined in Table 1. The plates were then returned to a 37° C. incubator and left undisturbed for 4 days. The day 1 (baseline) plates were developed by first adding 50 μl media (without compound) to bring the volume in each well to 100 μl, then adding 100 μl of Cell Titer Glo reagent (as below).
(§5) After four days of treatment, the plates were developed with Cell Titer Glo (CTG) reagent (Promega Corp.; Madison, Wis.). Reagent was reconstituted as described in the product insert. 100 μl of reagent was added to all treatment and control wells and the plates were gently shaken for 5 minutes then incubated an additional 5 minutes before reading in an Analyst AD (Molecular Devices Corporation; Sunnyvale, Calif.) using the Luminescence settings.
(§6) Data was analyzed in Excel using XLfit 4.2, fit model #205 (Dose Response One Site)

WiDr = assay type: cell-based; settings: Homo sapiens, 96 h, read-out: IC50 cell proliferation
Method: as §1, §2, §3, §4, §5, §6

Malme 3M = assay type: cell-based; settings: Homo sapiens, 96 h, read-out: IC50 cell proliferation
Method: as §1, §2, §3, §4, §5, §6

Hs746T = assay type: cell-based; settings: Homo sapiens, 96 h, read-out: IC50 cell proliferation
Method: as §1, §2, §3, §4, §5, §6

HT-29 = assay type: cell-based; settings: Homo sapiens, read-out: IC50 cell proliferation
Method: as §1, §2, §3, §4, §5, §6

UACC-62 = assay type: cell-based; settings: Homo sapiens, read-out: IC50 cell proliferation
Method: as §1, §2, §3, §4, §5, §6

8505C = assay type: cell-based; settings: Homo sapiens, 96 h, read-out: IC50 cell proliferation
Method: as §1, §2, §3, §4, §5, §6

N-87 = assay type: cell-based; settings: Homo sapiens, 96 h, read-out: IC50 cell proliferation
Method: as §1, §2, §3, §4, §5, §6

SNU-16 = assay type: cell-based; settings: Homo sapiens, read-out: IC50 cell proliferation
Method: as §1, §2, §3, §4, §5, §6

U-937 = assay type: cell-based; settings: Homo sapiens, read-out: IC50 cell proliferation
Method: as §1, §2, §3, §4, §5, §6

WM-266-4 = assay type: cell-based, human; settings: 4 days continuous exposure
Method: as §1, §2, §3, §4, §5, §6

O=C(Nc1ccc2[nH]nc(-c3ccncc3)c2c1)C1CCN(CC(=O)N2CCN(c3ccc(-c4ncccn4)cc3)CC2)C1 (stereo not shown) [cpd. a]
IC50 (MB-453; MB-453, Breast, BRAF V600E Heterozygous, 4 days continuous exposure): 0.672 µM
IC50 (WiDr; Colon, BRAF V600E Heterozygous, 4 days continuous exposure): 0.039 µM
IC50 (Malme 3M; Malme 3M, Melanoma, BRAF V600E Homozygous, 4 days continuous exposure): 0.01 µM
IC50 (Hs746T; Gastric, BRAF V600V Wild type, 4 days continuous exposure): 0.125 µM
IC50 (HT-29; 96 h, HT-29, Colon, BRAF V600E Heterozygous, 4 days continuous exposure): 0.05 µM
IC50 (UACC-62; 96 h, UACC-62, Melanoma, BRAF V600E Homozygous, 4 days continuous exposure): 0.03 µM
IC50 (8505C; Thyroid, BRAF V600E Homozygous, 4 days continuous exposure): 0.05 µM
IC50 (N-87; N-87, Gastric, BRAF V600V Wild type, 4 days continuous exposure): 0.307 µM
IC50 (SNU-16; 96 h, SNU-16, Gastric, BRAF V600V Wild type, 4 days continuous exposure): > 3 µM
IC50 (U-937; 96 h, U-937, Leukemia, BRAF V600V Wild type, 4 days continuous exposure): > 3 µM

O=C(NOC[C@H](O)CO)c1ccc(F)c(F)c1Nc1ccc(I)cc1F [cpd. b, PD0325901]
IC50 (MB-453): 1 µM
IC50 (WiDr): 0.006 µM
IC50 (Malme 3M; Malme-3M): 0.01 µM
IC50 (Hs746T): 0.007 µM
IC50 (HT-29; HT-29, 96 h): 0.02 µM
IC50 (UACC-62; UACC-62, 96 h): 0.005 µM
IC50 (8505C): 0.01 µM
IC50 (N-87): 0.064 µM
IC50 (SNU-16; SNU-16, 96 h): 1 µM
IC50 (U-937; U-937, 96 h): 1 µM
IC50 (WM-266-4; Homo sapiens, WM 266-4, 96 h, read-out: IC50 cell proliferation, WM-266-4, Melanoma, BRAF V600D Heterozygous): < 0.01 µM
IC50 (WM-266-4; read-out: IC50 cell proliferation, WM-266-4, Melanoma, BRAF V600D Heterozygous): 0.01 µM
